Data reported in PMC3739823, “Structural Guided Scaffold Phage Display Libraries as a Source of Bio-Therapeutics” (PLoS ONE, 2013).
No end group written: not given here.

Legend:
[1] = Size-exclusion chromatography (FPLC) of purified scFv
αvβ6-negative cells = assay: Internalisation assay, αvβ6-negative cells (confocal microscopy); conditions: scFv 4 uM or biotinylated peptide 100 nM, 37°C
αvβ6-expressing cells = assay: Internalisation assay, αvβ6-expressing cells (confocal microscopy); conditions: for cellular internalisation in αvβ6-expressing cells: scFv 4 uM or biotinylated peptide 100 nM, confocal microscopy; for cellular internalisation in αvβ6-expressing cells / nuclear localisation / time of efficient internalisation: 37°C; for nuclear localisation / time of efficient internalisation: biotinylated peptide 100 nM
[2] = tested on: αvβ6-dependent adhesion of carcinoma cells to immobilised fibronectin; assay: αvβ6-dependent adhesion to fibronectin (Picogreen adhesion assay); type: cell-based; conditions: for inhibition of αvβ6-dependent adhesion to fibronectin: fibronectin 10 ug/ml, 30 min at 37°C, quadruplicate, repeated at least 2-3 times
Protocol: All adhesion assays were performed in quadruplicate and repeated at least 2–3 times. In a 96-well plate format, test wells were coated with Fibronectin (10 ug/ml/PBS) and negative control wells were coated with 0.1% BSA (bovine serum albumin)/PBS. After incubation at 37°C for 1 hour, plates were washed in PBS twice and blocked with 0.1% BSA/PBS for 30 mins at 37°C. Following a PBS rinse, cells were seeded into the wells, the plate resting on ice to avoid dehydration and to ensure an initial uniform temperature for the experiment. Purified scFv or peptide was added (25 ul) to the wells at the desired concentrations, before adding 1.5×10^4 cells (25 ul) per well. In some experiments, cells (1.5×10^4) were pre-treated with β1 blocking antibody AIIB2 at 10 ug/ml before seeding into test wells to block the β1-dependent fibronectin adhesion. To determine percentage adhesion, standard curves were generated by plating 0–2.5×10^4 cells in separate wells. After incubating plates at 37°C for 30′ plates were washed twice in 1 mM CaCl2/0.5 mM MgCl2/PBS and transferred into −80°C for 15 mins. Adherent cells were quantified using a Picogreen kit (Invitrogen) and analysed on a fluorescence reader (FLUOstar Optima, BMG Labtech Ltd, Bucks, UK).

cellular αvβ6 = assay: Inhibition of A20FMDV2 binding to cellular αvβ6 (flow cytometry); type: cell-based; conditions: 0.1 and 1.0 µM, 10 min pre-incubation, 40 min with 10 nM biotinylated A20FMDV2; % of MFI without inhibitor
A375Ppuro cells = assay: Flow cytometry binding to αvβ6-negative cells; type: cell-based; conditions: for binding to αvβ6-negative cells: flow cytometry, A375Ppuro (αvβ3, αvβ5, αvβ8, α5β1 positive), dose dependent binding analysis, 0.1 or 1 uM; for binding to αvβ6-negative cells (Figure S1): biotinylated peptide at 1 uM, A375Ppuro, rabbit anti-biotin IgG then anti-rabbit IgG-Alexafluor 488
Protocol: (§1) The adherent melanoma cell lines A375Pβ6 and A375Ppuro, described previously were cultured in Dulbecco's Modified Eagles' Medium (DMEM) supplemented with 10% Foetal Calf Serum (FCS). The human oral squamous cell carcinoma VB6, which was engineered to express high levels of αvβ6, was grown in Keratinocyte Growth Medium as described.
(§2) Purified scFv were tested for specificity for αvβ6 by flow cytometry using the isogenic pairs of cell lines, A375Pβ6 and A375Ppuro, or DX3β6 and DX3puro. Each pair expresses similar levels of four RGD-binding integrins (αvβ3, αvβ5, αvβ8, α5β1) but only A375Pβ6 and DX3β6 express αvβ6 [14], [22], [30]. Briefly, cells were detached with trypsin/EDTA, rinsed twice in ice-cold wash buffer (0.1% BSA/DMEM/0.1% NaN3) and approximately 2×10^5 cells re-suspended in 50 µl of wash buffer per sample. In between all incubation steps, all samples were washed twice with wash buffer unless otherwise stated. Cells were incubated on ice for 1 hr with 0.1 or 1 uM purified scFv of peptide, washed twice. For scFv, cells were then incubated for 1 hr on ice with mouse anti-Myc antibody (clone 9E10, Santa Cruz) at 1∶100. After washing, bound antibody was detected with anti-mouse IgG-Alexaflour 488 (1∶250 for 1 h; Molecular Probes), on ice. […] Cells were analysed using the FACSCalibur (Beckton Dickinson). Cell expression of αvβ6 integrin was detected with mouse monoclonal antibody (clone 10D5, 10 µg/ml; Millipore) and non-specific (control) binding with non-immune class matched IgG.
Supplementary file pone.0070452.s001.tif: Figure S1 A375Ppuro cells were incubated with biotinylated D25p or D34p at 1 uM. Bound peptide was detected with rabbit anti-biotin IgG (1∶200), followed by anti-rabbit IgG-Alexafluor 488 (1∶250; Molecular Probes). […] Black histograms represent controls where peptides were omitted. (TIF) Click here for additional data file.

recombinant αvβ6 = assay: Monoclonal scFv screening ELISA / binding to immobilised recombinant αvβ6; conditions: specific binding to recombinant αvβ6, summary statement
Protocol: Figure 2 Screening of phage clones isolated from the α-helix & 3_10-helix libraries. A) Monoclonal scFv screening ELISA testing 96 clones in each library. Bacterial supernatants were added to 5 µg/ml recombinant αvβ6 immobilized onto ELISA plate and then probed with mouse anti-Myc antibody followed by anti-mouse-HRP. B) Clones with unique sequences were screened for binding cellular αvβ6 by flow cytometry. […] For clarity the relevant αvβ6-specific mouse monoclonal antibody 10D5 (grey) and the negative control IgG (black) histograms are also shown in each plot. […] TEXT PRINTED IN THE PICTURE: (C) D25: 30kDa | (C) D34: 30kDa
The α-helix and 3_10 libraries were each rescued separately KM13 helper phage as described previously. For selection, we used in parallel each library separately as well as mixed alpha helix and 3_10 libraries. The initial phage selection was performed using immobilised recombinant αvβ6 protein as described previously, [29] and http://www.lifesciences.sourcebioscience.com/ media/143421/tomlinsonij.pdf. After two rounds of selection on immobilised αvβ6 we then selected the libraries on cell-expressed αvβ6 using A375Pβ6 and A375PPuro cell lines, for αvβ6-positive and αvβ6-negative selection, respectively, [22]. First line screening were done by ELISA using 5 µg/ml immobilised recombinant αvβ6 as described.

[3] = tested on: A375Pβ6 cells (cellular αvβ6); assay: Flow cytometry binding to αvβ6-expressing cells; type: cell-based; conditions: for binding to αvβ6-expressing cells: flow cytometry, dose dependent binding analysis, 0.1 or 1 uM, 1 hr on ice, MFI
Protocol: as §1, §2

Substance | size-exclusion lower peaks elution volume ([1]; HiPrep 16/60 sephacryl S-200, PBS, 0.3 ml/min, 280 nm, scFv dimers and tetramers) [mL] | size-exclusion major peak, apparent molecular weight ([1]; HiPrep 16/60 sephacryl S-200, PBS, calibration curve) [kDa] | oligomerisation by size-exclusion chromatography ([1]; lower peaks at 45–60 ml, PBS) | cellular internalisation in αvβ6-negative cells (αvβ6-negative cells) | cellular internalisation in αvβ6-expressing cells (αvβ6-expressing cells) | cellular localisation at 0 minutes (αvβ6-expressing cells; scFv 4 uM, 0 minutes, αvβ6-expressing cells) | cellular localisation at 45 minutes (αvβ6-expressing cells; scFv 4 uM, 37°C for 45 minutes, αvβ6-expressing cells) | inhibition of αvβ6-dependent adhesion to fibronectin [2] | comparison of adhesion inhibition, D25scFv vs D34scFv ([2]; p>0.05) | inhibition of A20FMDV2 binding to cellular αvβ6 (cellular αvβ6) | binding to αvβ6-negative cells (A375Ppuro cells) | binding to recombinant αvβ6 (recombinant αvβ6) | comparison of binding to cellular αvβ6, D34scFv versus D25scFv ([3]; discussion statement) | binding to αvβ6-expressing cells [3] | binding to cellular αvβ6, flow cytometry verification ([3]; scFv at 100, 10 and 1 µg/ml) | comparison of inhibition of αvβ6-cellular function, D25p vs D34p ([2]; discussion statement) | comparison of adhesion inhibition, D25p vs D34p ([2]; p = 0.0156, Wilcoxon matched-pairs signed rank test) | binding to αvβ6-negative cells (Figure S1) (A375Ppuro cells) | nuclear localisation (αvβ6-expressing cells; αvβ6-expressing cells) | time of efficient internalisation (αvβ6-expressing cells; αvβ6-expressing cells) [min]
D25scFv: human scFv clone with synthetic VH-CDR3 encoding RGD α-helix, EP RGDLRTLAAREKRNFNETLAR LQEKGI | 45 to 60 | 30 | scFv dimers and tetramers | not in αvβ6-negative cells | cellular internalisation in αvβ6-expressing cells | localised at the cell surface | localised within the cell cytoplasm and nucleus | significant concentration-dependent inhibition | similarly inhibited | dose-dependent inhibition | not A375Ppuro | specific binding to recombinant and cellular αvβ6 | no difference in binding | αvβ6-specific binding to A375Pβ6 cells | Binding to cellular αvβ6 | – | – | – | – | –
EP RGDLRTLAAREKRNFNETLAR LQEKGI [D25p, VH-CDR3 derived peptide of D25scFv, 29 amino-acids] | – | – | – | – | – | – | – | significant concentration-dependent inhibition | – | dose-dependent inhibition | not A375Ppuro | specific binding to recombinant and cellular αvβ6 | – | αvβ6-specific binding to A375Pβ6 cells | – | more efficient inhibitor of αvβ6-cellular function than D34p | significantly stronger than D34p | – | – | –
QP RGDLRELAARSEAQLQEKGI [D34p, VH-CDR3 derived peptide of D34scFv, 22 amino-acids] | – | – | – | – | – | – | – | significant concentration-dependent inhibition | – | dose-dependent inhibition | not A375Ppuro | specific binding to recombinant and cellular αvβ6 | – | αvβ6-specific binding to A375Pβ6 cells | – | – | – | no significant binding | – | –
biotinylated-D25p: biotinylated D25p peptide (EPRGDLRTLAAREKRNFNETLARLQEKGI; also: biotinylated, position not given here) | – | – | – | not in αvβ6-negative cells | cellular internalisation in αvβ6-expressing cells | – | – | – | – | – | – | – | – | – | – | – | – | no significant binding | no nuclear localisation | 30 to 45
biotinylated-D34p: biotinylated D34p peptide (QPRGDLRELAARSEAQLQEKGI; also: biotinylated, position not given here) | – | – | – | not in αvβ6-negative cells | cellular internalisation in αvβ6-expressing cells | – | – | – | – | – | – | – | – | – | – | – | – | – | no nuclear localisation | 30 to 45
